In brackets after ≈: the same amount, converted by molar mass. Read-outs that look alike come from different tables or passages of the source. Peptide text beside a SMILES is read from it. * marks the point of attachment. βNA = c1ccc2cc(N*)ccc2c1
Experiments:
Serratia marcescens NIMA = test: MIC by microdilution (EUCAST), planktonic bacteria; type: cell-based; settings: tested alone
Experimental: (§1) The minimum inhibitory concentrations (MICs) of colistin, TMP, 1a, and 1b were determined using the microdilution method, according to EUCAST recommendations.

E. coli 220560529 = test: Susceptibility test in TMP-resistant strain; type: cell-based; settings: data not shown
Experimental: as §1

S. epidermidis 220560752 = test: Susceptibility test in TMP-resistant strain; type: cell-based; settings: data not shown
Experimental: as §1

E. coli DHFR = molecular target: T1, E. coli DHFR (Escherichia coli, UniProt P0ABQ4); test: Dihydrofolate reductase assay; type: biochemical; settings: inhibitor 5 µM, 30 min incubation
T1 construct: gift of E. Shakhnovich and J.V. Rodrigues (Harvard University)
Experimental: The DHFR assay is based on the reduction of 7,8-dihydrofolate to 5,6,7,8-tetrahydrofolate catalyzed by DHFR and using NADPH as a cofactor. Purified E. coli DHFR was kindly provided by E. Shakhnovich and J.V. Rodrigues (Harvard University, Cambridge, MA, USA). The DHFR assay kit (CS0340) was purchased from Sigma-Aldrich. The assay was performed in 96-well flat-bottom plates (Corning Costar 3606, NY, USA) with the protocol adjusted to accommodate a final reaction volume of 200 µL. DHFR was diluted to a final concentration of 0.03 µg/mL. The inhibitory effect of compounds 1a and 1b was tested, with TMP serving as the control. All three drugs were used at a concentration of 5 µM, which was higher than the respective MICs (Table 1). To determine the effect of the concentration of the DHFR cofactor NADPH on inhibition, a dilution series of NADPH in assay buffer was carried out to obtain a concentration range between 60 µM and 240 µM. A dilution series of H2F was similarly carried out in assay buffer to obtain a concentration range from 50 µM to 200 µM. In all assays, the enzyme was mixed with the different inhibitors and incubated for 30 min before the enzymatic reaction was initiated by the addition of NADPH and H2F. The reaction was conducted at 37 °C and monitored by the decrease in absorbance at 340 nm (indicative of a decrease in the NADPH concentration). […]

HepG2 cells = test: Cytotoxicity assay (resazurin); type: cell-based, human
Experimental: (§2) The cytotoxicity assay was carried out in the human hepatocellular carcinoma cell line Hep G2 ATCC and in murine L-929 fibroblasts (NCTC clone 929, ECACC 88102702), based on the experiments described by Vinuesa et al.. The cells were obtained from Dr. Ricardo Pérez-Tomás (Cancer Cell Biology, University of Barcelona). The cytotoxicity of TMP and compounds 1a and 1b was determined by measuring the intracellular reduction of resazurin sodium salt (Sigma-Aldrich, St. Louis, MO, USA). HepG2 and L-929 cells were grown in RPMI 1640 and MEM medium, respectively (Biochrom AG, Berlin, Germany), supplemented with 10% fetal bovine serum. Cells from pre-confluent cultures were harvested with trypsin-EDTA and maintained at 37 °C and 5% CO2. […] Twenty µL of resazurin was then added to each well and the plates were incubated under the same conditions. Fluorescence was measured at an excitation wavelength of 530 nm and an emission wavelength of 590 nm using a scanning multi-well spectrophotometer (FLUOstar OPTIMA, BMG Labtech, Germany). Cytotoxicity was calculated as follows:(1) % Cytotoxicity = 100−(AT−ADB)/(AC−AMB) ×100 where AT is the absorbance of the treated cells, ADB the absorbance of the drug blank control, AC the absorbance of the untreated cells, and ACB the absorbance of the medium blank.

[1] = Cytotoxicity assay (resazurin); type: cell-based, murine; settings: mouse, L-929 fibroblasts; 32 μg/mL, 24 h; percentage of dead cells
Experimental: as §2

L-929 cells = test: Cytotoxicity assay (resazurin); type: cell-based, murine
Experimental: as §2

[2] = Storage stability checked by HPLC-MS; type: physicochemical; settings: for stability of stock solutions in DMSO: kept in the cold; for time after synthesis without signs of decomposition: stored at −20 °C under an inert atmosphere, HPLC-MS
Experimental: Compounds 1a and 1b were prepared as previously reported, from the interaction of TMP with aldehydes and isocyanides in acetonitrile under Yb(OTf)3 catalysis. The compounds were purified by chromatography and stored at −20 °C under an inert atmosphere. Stock solutions in DMSO were stable when kept in the cold. The integrity of these compounds and solutions thereof was confirmed by HPLC-MS (column: ZORBAX Extend-C18 3.5 μm 2.1 × 50 mm, Agilent; mobile phase A: H2O + 0.05% HCOOH; mobile phase B: ACN + 0.05% HCOOH; 10 min; 35 °C). There were no signs of decomposition at least 1 year after their chemical synthesis.

[3] = test system: Escherichia coli ATCC 25922; set-up: method as in PMID 31334221; settings: tested alone; cited from earlier work
[4] = test system: Pseudomonas aeruginosa PAO1; set-up: method as in PMID 31334221; settings: tested alone; cited from earlier work
S. marcescens NIMA = test: Real-time growth curves with sublethal concentrations; type: cell-based; settings: with SMX (1:20), in the presence of colistin
Experimental: (§3) Additionally, the effect of TMP-SMX and the GBBR analogues in combination with sublethal concentrations of colistin was assessed in growth curves of E. coli ATCC 25922, P. aeruginosa PAO1, and S. marcescens NIMA. Exponential-phase cultures were adjusted to 5 × 10^6 CFU/mL in a final volume of 10 mL of TSB and the antimicrobials were added at sublethal concentrations. Growth was monitored using RTS-1C real-time cell growth loggers (Biosan SIA, Riga, Latvia) in cells incubated for 24 h at 37 °C with shaking at 2000 rpm. Growth was measured every 10 min as the optical density (OD 850 nm).

[5] = Cytotoxicity assay (resazurin); type: cell-based, human; settings: human, HepG2 cells; 32 μg/mL, 24 h; percentage of dead cells
Experimental: as §2

bacterial growth = test system: bacterial growth; set-up: method as in PMID 23722434; settings: concentrations up to 40 µg/mL; cited from earlier work
P. aeruginosa PAO1 [6] = test: MIC in presence or absence of efflux pump inhibitor PAßN; type: cell-based; settings: colistin alone
Experimental: The efflux pump inhibitor phenyl-arginyl-β-naphthylamide (PaβN) was purchased from Sigma-Aldrich Chemicals (Madrid, Spain). The MIC of the TMP analogues in combination with SMX in the presence of 20 µg PaβN/mL was determined in P. aeruginosa PAO1 using the microdilution method.

E. coli ATCC 25922 = test: Real-time growth curves with sublethal concentrations; type: cell-based; settings: 0.11 µM colistin alone
Experimental: as §3

P. aeruginosa PAO1 [7] = test: as above; type: cell-based; settings: 0.87 µM colistin alone
Experimental: as §3

[8] = Homo sapiens, HepG2, 24 h, read-out: IC50 (drug concentration needed to inhibit cell growth by 50%)
[9] = Mus musculus, L929, 24 h, read-out: IC50 (drug concentration needed to inhibit cell growth by 50%)

T1 sequence (P0ABQ4 whole entry): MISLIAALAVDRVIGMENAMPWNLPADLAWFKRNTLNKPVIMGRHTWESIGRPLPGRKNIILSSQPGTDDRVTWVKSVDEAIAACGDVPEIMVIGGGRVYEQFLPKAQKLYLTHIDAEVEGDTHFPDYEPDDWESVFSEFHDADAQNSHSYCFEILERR

Row | Compound | MIC (Serratia marcescens NIMA; Serratia marcescens) | effect in TMP-resistant strain (E. coli 220560529) | effect in TMP-resistant strain (S. epidermidis 220560752) | inhibition at 5 µM (E. coli DHFR) | IC50 (HepG2 cells; [8]) | cytotoxicity at 24 h, 32 μg/mL [1] | IC50 (L-929 cells; [9]) | stability of stock solutions in DMSO [2] | time after synthesis without signs of decomposition [2] | MIC [3] | MIC [4] | cytotoxicity at 24 h, 32 μg/mL [5] | other results
1 | COc1cc(Cc2cn3c(NC(C)(C)C)c(C)nc3nc2N)cc(OC)c1OC [Compound 1a] | 80.1 µM (≈ 32 µg/mL) | no significant effect | no significant effect | > 80% | > 32 µg/mL | 0% | > 32 µg/mL | stable | at least 1 year | 1.25 µM (≈ 0.499 µg/mL) | >80.10 µM | – | –
2 | COc1cc(Cc2cn3c(NC4CCCCC4)c(-c4cccnc4)nc3nc2N)cc(OC)c1OC [Compound 1b] | 16.4 µM (≈ 8 µg/mL) | no significant effect | no significant effect | > 80% | > 32 µg/mL | 0% | > 32 µg/mL | stable | at least 1 year | 1.02 µM (≈ 0.498 µg/mL) | >65.50 µM | 0.11% | effect on growth curve (S. marcescens NIMA): complete abolition of growth
3 | NC(N)=NCCC[C@H](NC(=O)[C@@H](N)Cc1ccccc1)C(=O)Nc1ccc2ccccc2c1 [PAßN, phenylalanine arginyl ß-naphthylamide] (H-Phe-Arg-βNA) | – | – | – | – | – | – | – | – | – | – | – | – | effect on bacterial growth (bacterial growth): no detectable effect on bacterial growth
4 | COc1cc(Cc2cnc(N)nc2N)cc(OC)c1OC [TMP, Trimethoprim] | 13.8 µM (≈ 4 µg/mL) | – | – | – | – | 0.8% | – | – | – | 0.43 µM (≈ 0.125 µg/mL) | >110.22 µM | 0.35% | IC50 (HepG2 cells; Homo sapiens, HepG2, 24 h; read-out: IC50 (drug concentration needed to inhibit cell growth by 50%)): > 32 µg/mL; IC50 (L-929 cells; Mus musculus, L929, 24 h; read-out: IC50 (drug concentration needed to inhibit cell growth by 50%)): > 32 µg/mL
5 | colistin | – | – | – | – | – | – | – | – | – | 0.43 µM | 1.73 µM | – | MIC (Serratia marcescens NIMA): >886.23 µM; MIC With PAßN (P. aeruginosa PAO1 [6]; PAßN 20 µg/mL): 1.73 µM; MIC Without PAßN (P. aeruginosa PAO1 [6]): 1.73 µM; delay in growth (E. coli ATCC 25922): 10 h; delay in growth (P. aeruginosa PAO1 [7]): 2 h
